Source: PubChem BioAssay AID1259333 (Broad Institute, 2017)
The source made the active and inactive calls. The rule behind the calls is not given here; tested in parental BL2 cells.

Assay: cell cytotoxicity, dose response, cytotoxicity control, CellTiter-Glo (AID 1259333);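 note: 0% = vehicle neutral controls and -100% = reference inhibitor positive controls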
Conditions: cytotoxicity, CellTiter-Glo ATP luminescence; at 3 µM (top of the series)
For `O=C(Nc1ccccc1F)N1C[C@@H]2N[C@H](C1)C2c1ccc(/C=C/c2ccccc2)cc1` (some centres undefined), the activity change, negative = cytotoxicity was 21.6% (inactive).

Same assay, conditions: cytotoxicity, CellTiter-Glo ATP luminescence; at 10 µM (top of the series)
In the case of `Cc1ccc2c(c1)C(O)(CC(=O)/C=C/C=C/c1ccccc1)C(=O)N2` (centres undefined), the activity change, negative = cytotoxicity is reported as 24.8% (inactive).
In the case of `Cc1ccc(-c2ccccc2[C@H]2[C@@H](C#N)N(c3ncc(-c4ccccc4)s3)[C@@H]2CO)cc1`, the activity change, negative = cytotoxicity is reported as 47.4% (inactive).
In the case of `CS(=O)(=O)c1ccc(C(=O)OCC(=O)NC(=O)C2COc3ccccc3O2)cc1[N+](=O)[O-]` (centres undefined), the activity change, negative = cytotoxicity is reported as 25.3% (inactive).
With `COc1ccc(-c2cnc3c(c2)C(=O)N([C@H](C)CO)C[C@@H](C)[C@@H](CN(C)C(=O)Nc2c(C)noc2C)O3)cc1` the activity change, negative = cytotoxicity was 49.3% (inactive).
For `COc1cc2c(cc1OC)C(=O)C(Br)CC2` (centres undefined), the activity change, negative = cytotoxicity was 112% (inactive).
In the case of `C[C@H]1CN([C@@H](C)CO)C(=O)c2cccc(NC(=O)Nc3ccc(F)cc3)c2O[C@H]1CN(C)S(=O)(=O)c1ccc(Cl)cc1`, the activity change, negative = cytotoxicity is reported as 55% (inactive).
In the case of `COc1ccc(C=Cc2ccc3ccccc3n2)c(OC)c1`, the activity change, negative = cytotoxicity is reported as 26.9% (inactive).
For `COC1=CC(=O)c2c(ccc3ncnc(N)c23)C1=O`, the activity change, negative = cytotoxicity was 44.6% (inactive).
In the case of `Cc1ccc2nc(-c3cc(-c4ccccc4)no3)cn2c1`, the activity change, negative = cytotoxicity is reported as 51.5% (inactive).
In the case of `O=C(C1CCOCC1)N1CC(=O)N2[C@H](C1)[C@@H](c1ccc(C#CCc3ccccc3)cc1)[C@@H]2CO`, the activity change, negative = cytotoxicity is reported as 47.9% (inactive).
With `C[C@H]1CN([C@@H](C)CO)C(=O)c2c(c3ccccc3n2C)-c2ccccc2CO[C@H]1CN(C)S(=O)(=O)c1ccc([N+](=O)[O-])cc1` the activity change, negative = cytotoxicity was 75.5% (inactive).
With `O=C(CN1C(=O)c2ccccc2S1(=O)=O)Nc1ncc(Cl)cc1Cl` the activity change, negative = cytotoxicity was 30.7% (inactive).
With `Cc1ccc(-c2nn3c(C)nnc3c3ccccc23)cc1S(=O)(=O)NCc1ccccc1` the activity change, negative = cytotoxicity was 16.1% (inactive).
With `COc1ccc(S(=O)(=O)N(C)C[C@H]2Oc3ccc(NC(=O)Nc4ccc(C(F)(F)F)cc4)cc3C(=O)N([C@@H](C)CO)C[C@@H]2C)cc1` the activity change, negative = cytotoxicity was 33.2% (inactive).
In the case of `COc1ccc(CN2CC3(CN(C(=O)Cc4ccccc4)C3)c3c([nH]c4cc(OC)ccc34)[C@H]2CO)cc1`, the activity change, negative = cytotoxicity is reported as 21.8% (inactive).
In the case of `C(=Cc1c[nH]c2ccccc12)c1nccc2ccccc12`, the activity change, negative = cytotoxicity is reported as 33.1% (inactive).
With `C[C@@H]1CN([C@@H](C)CO)C(=O)Cc2cc(NS(=O)(=O)c3ccc(F)cc3)ccc2O[C@H]1CN(C)Cc1ccc(C(F)(F)F)cc1` the activity change, negative = cytotoxicity was 20.6% (inactive).
With `O=C(C1CCCC1)N1CC(=O)N2[C@@H](CO)[C@@H](c3ccc(C#CCc4ccccc4)cc3)[C@@H]2C1` the activity change, negative = cytotoxicity was 53.6% (inactive).
With `CCc1cnc(N2[C@H](C#N)[C@H](c3ccc(C#CCC4CCCC4)cc3)[C@@H]2CO)s1` the activity change, negative = cytotoxicity was 56.6% (inactive).
With `CC(=O)Nc1ccc(S(=O)(=O)c2ccc(N)cc2)cc1` the activity change, negative = cytotoxicity was 13.9% (inactive).
In the case of `N#C[C@@H]1[C@@H](c2ccc(C#CC3CCCCC3)cc2)[C@H](CO)N1C(=O)Nc1ccc(F)cc1`, the activity change, negative = cytotoxicity is reported as 28.9% (inactive).
For `CC(C)Cc1ccc(C(C)/C=C2/CCC(CN3CCCCC3)C2=O)cc1` (centres undefined), the activity change, negative = cytotoxicity was 26.2% (inactive).
For `Cc1ccc(S(=O)(=O)CCC(=O)N(CCCN2CCOCC2)c2nc3ccccc3s2)cc1`, the activity change, negative = cytotoxicity was 29.5% (inactive).
